Assay results published in patent publication US12673057B2, “RIPK2 inhibition for the treatment of cancer” (CEDARS-SINAI MEDICAL CENTER, priority 2020, dated 2026).
Entries after “also recorded” stand apart in the source; their conditions may differ. Like-named read-outs stand apart in the source and are kept apart here. Residues, ends and D or L forms follow the SMILES beside them. *: point of attachment. Cbz = O=C(OCc1ccccc1)*

What was measured:
RIPK2 = assay: Cell-based MKK7 phosphorylation immunoblot, surrogate for RIPK2 activity, RIPK2-KO HEK293T cells; design: species or system human; details: 10 μM, 2 h, 10% fetal bovine serum
22Rv1 cells = test system: 22Rv1 cells
Description: Experimental metastasis model: For In vivo metastasis assays, pBMN (CMV-copGFP-Luc2-Puro) (Addgene) was stably transfected into control and RIPK2-KO 22Rv1 cells. Two weeks later, luciferase-expressing cells were sorted with a FACSAria III (BD Biosciences) using the same gate for GFP. […] To each male SCID/Beige mouse (7-week-old; Charles River), 100 μL of 1×10^7 cells/mL in DPBS was intracardially injected into the left cardiac ventricle. Each week, 150 μL of 30 mg/mL D-luciferin was intraperitoneally injected into each mouse, followed by measuring tumor metastasis with an IVIS Spectrum In Vivo Imaging System (PerkinElmer). Luciferase activity was quantified by the Living Image software (Caliper Life Sciences, v4.3.1).
Established metastasis model: For drug treatment, to each male SCID/Beige mouse (8-week-old; Charles River), 100 μL of 2.5×10^6 cells/mL in DPBS was intracardially injected. […] Two more mice were assigned to drug treatment groups in preparation for possible drug toxicity deaths, compared with the control group. Mice were daily administered by oral gavage (po qd) with a drug or vehicle control for 28 days. GSK583 was administered at 10 mg/kg po qd. […] Metastases were visualized by bioluminescence imaging every week as described above. At the end of the experiments, mice were sacrificed by standard necropsy, and tumors were harvested and subjected to histopathology analyses.
In the clinical scenario, patients with nmCRPC have no detectable metastases by conventional radiographic imaging. […] To investigate whether pharmacological inhibition of RIPK2 can suppress PC metastasis in a setting that mimics the clinical scenario, we injected the aforementioned luciferase-tagged control 22Rv1 cells intracardially into male SCID/Beige mice, and waited for 9 days to allow for the formation of early metastatic lesions, prior to drug treatment (FIG. 22G). To determine whether GSK583 impairs metastatic outgrowth, we randomized the mice into two groups (FIG. 31A), followed by treatment with vehicle control or GSK583 (10 mg/kg) administered by oral gavage every day (po qd).

[1] = mouse, in vivo, po, 30 mg/kg
PC3 cells = assay: 3D spheroid invasion assay; details: 10 μM, 3D culture
[2] = test system: PC3, DU145, and 22Rv1 cells; assay: Clonogenic assay (anchorage-dependent colony formation); assay type: cell-based, human
Description: Two milliliters of PC3 (250/mL), DU145 (250/mL), or 22Rv1 (1,000/mL) cells were seeded in 6-well plates and cultured in 10% FBS-containing media, which were replaced every 2-3 days. After 10-14 days, cells were fixed in 4% paraformaldehyde for 15 min and rinsed with DPBS for three times. Cells were stained with 120 μg/mL crystal violet solution. Cell colonies were quantified under an All-in-one microscope (Keyence) as described in the migration assay.

MYC mRNA = MYC mRNA abundance by quantitative RT-PCR; assay type: cell-based; details: different doses and time
Excerpt: Total RNA was extracted from cells using the TRIZOL (Invitrogen). Messenger RNA was converted to the first-strand cDNA using iScript cDNA synthesis kit (Bio-Rad), followed by RT-PCR reaction using SYBR Green PCR Master Kit in QuantStudio 5 Systems (Applied Biosystems). Gene expression was normalized to GAPDH using the comparative CT method. To determine how RIPK2 upregulates the c-Myc protein, we first examined whether RIPK2 regulates the transcription of the MYC gene. […] Thus, the regulation of c-Myc protein abundance by RIPK2 is mainly via a post-transcriptional mechanism.

[3] = test system: PC3, DU145, and 22Rv1 cells; assay: Soft agar assay (anchorage-independent colony formation); assay type: cell-based, human; details: 10 μM
Description: Soft agar assay was performed essentially as described (Borowicz et al., 2014). Briefly, 1.5 mL of 0.5% Nobel agar solution was plated in each well of 6-well plates as the bottom layer. 1.5 mL of 6.67×10^3/mL (for PC3 and DU145) or 1.33×10^4/mL (for 22Rv1) cells in 0.3% noble agar solution were plated in 6-well plates as the top layer. […] The medium was replaced every 2-3 days. After 2-3 weeks, cell colonies were stained with 0.1% crystal violet solution for 20 minutes and washed with deionized water for five times. Cell colonies were quantified under an All-in-one microscope (Keyence) as described in the migration assay.

[4] = test system: RIPK2/MKK7(/JNK)/c-Myc signaling; assay: Immunoblot of endogenous p-JNK, p-c-Myc-S62 and c-Myc in parental PC cells; assay type: cell-based, human; details: 10 μM GSK583 or 5 μM Ponatinib, 2 h
[5] = test system: c-Myc-Ser62 phosphorylation; assay: RIPK2-induced c-Myc-Ser62 phosphorylation immunoblot in RIPK2/MKK7-DKO HEK293T cells; assay type: cell-based, human
Description: (A) Representative immunoblots of the indicated proteins in total lysates of HEK293T cells with RIPK2- and MKK7-double knockout, which were transiently co-transfected with 0.5 μg MYC, 0.5 μg RIPK2m4, and 0.1 μg MAP2K7 or vector plasmids and then treated with vehicle control, MKK7-COV-3 (25 μM), or JNK-IN-8 (1 μM) in 10% FBS-containing medium for 2 h. (B) Representative images (upper) and quantification (lower) of PLA detecting the association of endogenous MKK7 and c-Myc in HEK293T cells (n=4 per group). (C) Representative images of immunofluorescence colocalization of MKK7 and c-Myc in RIPK2/MKK7-DKO HEK293T cells, which were transiently co-transfected with RIPK2m4, MKK7-His, and MYC plasmids. (D) Representative immunoblots of the indicated proteins after in vitro kinase reactions. (E) Representative immunoblots of the indicated proteins in total lysates of RIPK2/MKK7-DKO HEK293T cells, which were transiently transfected with the indicated forms of MKK7 plasmids or vector control. (F) Representative immunoblots of the indicated proteins in total lysates, cytoplasmic fraction, and nuclear fraction of RIPK2/MKK7-DKO HEK293T cells, which were transiently co-transfected with RIPK2m4, MYC, and MKK7 or vector control. (G) Representative images (upper) and quantification (lower) of PLA detecting the MKK7-c-Myc complex in RIPK2-KO HEK293T cells, which were transiently transfected with MYC and RIPK2m4 or vector control (n=5 per group). […] Data are Mean±SEM.
MKK7-COV-3, 25 μM; JNK-IN-8, 1 μM; 2-h treatment).

c-Myc protein = c-Myc protein degradation under cycloheximide treatment in PC3 cells; assay type: cell-based, human; details: in the presence of CHX treatment
Excerpt: In human cells, the c-Myc protein can be rapidly stabilized through Ser62 phosphorylation, which prevents the targeted degradation of c-Myc by the ubiquitin-proteasome system (Farrell and Sears, 2014). Therefore, we investigated whether RIPK2 phosphorylates and stabilizes the c-Myc protein. Ectopic overexpression of RIPK2 increased the abundance of phospho-c-Myc-Ser62 (p-c-Myc-Ser62) and total c-Myc in a dose-dependent fashion (FIG. 18L). […] Of note, RIPK2 is more frequently amplified or gained in mCRPC or overexpressed in primary PC than all known direct c-Myc-Ser62 kinases (FIG. 29). This raises a possibility that RIPK2 can more efficiently stabilize and activate c-Myc, and thus its overexpression is more favored by PC cells than the known direct c-Myc-Ser62 kinases. Collectively, RIPK2 stabilizes the c-Myc protein by phosphorylating its Ser62 residue and preventing it from proteasomal degradation, and RIPK2 is potentially a major stabilizer of the c-Myc protein in PC cells.

PC3 and 22Rv1 cells = assay: PC cell viability; details: 1 μM, 10% FBS-containing medium
[6] = cited from earlier work
JNK = assay: RIPK2-induced c-Jun phosphorylation (surrogate for JNK activity) in RIPK2/MKK7-DKO HEK293T cells; assay type: cell-based, human; details: 1 μM, 2-h treatment
Description: (A) Representative immunoblots of the indicated proteins in total lysates of HEK293T cells with RIPK2- and MKK7-double knockout, which were transiently co-transfected with 0.5 μg MYC, 0.5 μg RIPK2m4, and 0.1 μg MAP2K7 or vector plasmids and then treated with vehicle control, MKK7-COV-3 (25 μM), or JNK-IN-8 (1 μM) in 10% FBS-containing medium for 2 h. (B) Representative images (upper) and quantification (lower) of PLA detecting the association of endogenous MKK7 and c-Myc in HEK293T cells (n=4 per group). (C) Representative images of immunofluorescence colocalization of MKK7 and c-Myc in RIPK2/MKK7-DKO HEK293T cells, which were transiently co-transfected with RIPK2m4, MKK7-His, and MYC plasmids. (D) Representative immunoblots of the indicated proteins after in vitro kinase reactions. (E) Representative immunoblots of the indicated proteins in total lysates of RIPK2/MKK7-DKO HEK293T cells, which were transiently transfected with the indicated forms of MKK7 plasmids or vector control. […] (G) Representative images (upper) and quantification (lower) of PLA detecting the MKK7-c-Myc complex in RIPK2-KO HEK293T cells, which were transiently transfected with MYC and RIPK2m4 or vector control (n=5 per group). […]

CC(C)(C)S(=O)(=O)c1ccc2nccc(Nc3n[nH]c4ccc(F)cc34)c2c1 [GSK583]
MKK7 phosphorylation levels (a surrogate for RIPK2 activity) (RIPK2): substantially decreased | PC liver metastasis in vivo (22Rv1 cells; 10 mg/kg po qd): Inhibits | prostate cancer (22Rv1) metastasis in mice (22Rv1 cells; 10 mg/kg po qd): significantly decreased; also recorded: significantly suppressed; also recorded: significantly reduces; also recorded: Inhibits | decrease of BLI intensities in the ventral-side mid-body (liver metastasis) (22Rv1 cells; 10 mg/kg po qd, week 4): 67% | reduction of metastatic progression (total BLI intensities) (22Rv1 cells; 10 mg/kg po qd, week 4): 50% | toxicity to mice [1]: toxic to mice | spheroid invasion of PC3 cells (PC3 cells): significantly decreased; also recorded: significantly inhibited; also recorded: suppresses | anchorage-dependent colony formation ([2]; 10 μM, PC3, DU145, and 22Rv1): suppresses | inhibition at 10 µM ([2]; Homo sapiens, read-out: inhibition of colony formation): ≥ 40% | inhibition of colony formation ([2]; low doses (≤1 μM), PC3, DU145, and 22Rv1): not at low doses | regulation of MYC mRNA abundance (MYC mRNA): ~10% | anchorage-independent colony formation [3]: suppresses | RIPK2/MKK7(/JNK)/c-Myc signaling [4]: can inhibit

C=CC(=O)Nc1cccc(-c2n[nH]c3cc(C)ccc23)c1 [MKK7-COV-3]
decrease of RIPK2-induced c-Myc-Ser62 phosphorylation ([5]; 25 μM, 2-h treatment): 45%

CC(C)C[C@@H](C=O)NC(=O)[C@H](CC(C)C)NC(=O)[C@H](CC(C)C)NC(=O)OCc1ccccc1 [MG132] (Cbz-Leu-Leu-Leu-aldehyde)
degradation of the c-Myc protein (c-Myc protein): degradation can be blocked

Cc1ccc(C(=O)Nc2ccc(CN3CCN(C)CC3)c(C(F)(F)F)c2)cc1C#Cc1cnc2cccnn12 [Ponatinib]
reduction of total BLI intensities (22Rv1 cells; high-dose 30 mg/kg po qd for 10 days then 15 mg/kg, week 4): 92% | reduction of total BLI intensities (22Rv1 cells; low-dose 6 mg/kg po qd, week 4): 74% | effect on PC cell viability (PC3 and 22Rv1 cells): marginal effects | IC50 ([2]; Homo sapiens, read-out: IC50 of colony formation of PC cells): < 1000 nM | venous thromboembolic events ([6]; % of patients): 6% | arterial occlusive adverse events: cardiac vascular events ([6]; patients): 21% | arterial occlusive adverse events: cerebrovascular ([6]; patients): 9% | arterial occlusive adverse events: peripheral vascular ([6]; patients): 12% | common adverse event: abdominal pain ([6]; patients): 48% | common adverse event: arterial ischemia ([6]; patients): 42% | common adverse event: arthralgia ([6]; patients): 32% | common adverse event: back pain ([6]; patients): 21% | common adverse event: constipation ([6]; patients): 41% | common adverse event: diarrhea ([6]; patients): 20% | common adverse event: dry skin ([6]; patients): 42% | common adverse event: fatigue ([6]; patients): 47% | common adverse event: headache ([6]; patients): 43% | common adverse event: hypertension ([6]; patients): 69% | common adverse event: myalgia ([6]; patients): 24% | common adverse event: nausea ([6]; patients): 28% | common adverse event: pain in extremity ([6]; patients): 23% | common adverse event: peripheral neuropathy ([6]; patients): 24% | common adverse event: pyrexia ([6]; patients): 26% | common adverse event: rash ([6]; patients): 63%

Cc1cc(NC(=O)c2cccc(NC(=O)/C=C/CN(C)C)c2)ccc1Nc1nccc(-c2cccnc2)n1 [JNK-IN-8]
RIPK2-induced c-Jun phosphorylation, a surrogate for JNK activity (JNK): completed abolished | reduction of RIPK2-induced c-Myc-Ser62 phosphorylation ([5]; 1 μM, 2-h treatment): 16% | inhibition of RIPK2-induced c-Myc-Ser62 phosphorylation at higher concentrations ([5]; up to 25 μM): could not enhance its inhibition
